Test results: US8501910B2, “Protein sweetener” (Wisconsin Alumni Research Foundation, priority 2007, dated 2013)

Test system: humans
Assay: Human taste panel scoring sweetness on a magnitude labeled scale
Assay type: in vivo
Conditions: for sweetness potency: FIG. 1, human taste panel, varied concentrations diluted in water, compared for the weight being tested
Excerpt: To test the sweetness potency of our peptides we tested human perception of sweetness against known controls using varied concentrations of the protein (or other substance) being diluted in water. In the taste panel, humans were requested to score the sweetness sensations of the stimuli with a magnitude labeled scale in accordance with the techniques of B. Green et al., 21 Chemical Senses 323 (1996) (e.g. barely detectable; weak; moderate; strong; very strong; strongest imaginable).
We first gave those testers a sample of pure water with 2-10% sucrose as a calibration exercise two hours before protein testing. After the sucrose testing, they rinsed their mouth out thoroughly. The normal protocol included applying about 125 μI of the substance being tasted to the tongue, with the tested material kept in the mouth for about a minute.

| Substance | sweetness potency (individual observer) (tested by one individual observer, not a complete panel) | sweetness potency |
| --- | --- | --- |
| SEQ ID NO. 4: Brazzein variant with tyrosine at position 53 of SEQ ID NO: 1 replaced by another amino acid (probably Phe) (DKCKKVYENYPVSKCQLANQCNYDCKLKKHARSGECFYDEKRNLQCICDYCEF) | results similar to those for SEQ ID NO.5 | – |
| SEQ ID NO. 5: Brazzein variant Y53W: tyrosine at position 53 of SEQ ID NO: 1 replaced (DKCKKVYENYPVSKCQLANQCNYDCKLKKHARSGECFYDEKRNLQCICDYCEW) | – | significantly higher sweetness potency than either sucrose or wild type Brazzein |
| SEQ ID NO. 6: Brazzein variant Y53H: tyrosine at position 53 of SEQ ID NO: 1 replaced (DKCKKVYENYPVSKCQLANQCNYDCKLKKHARSGECFYDEKRNLQCICDYCEH) | – | significantly higher sweetness potency than sucrose |
| SEQ ID NO. 7: Brazzein variant with Ile Ile inserted at the N terminus of wild type Brazzein (IIDKCKKVYENYPVSKCQLANQCNYDCKLNKHARSGECFYDEKRNLQCICDYCEY) | – | significantly higher sweetness potency than either sucrose or wild type Brazzein |
| SEQ ID NO. 8: Brazzein variant with Gly Pro inserted at the N terminus of wild type Brazzein (GPDKCKKVYENYPVSKCQLANQCNYPCKLNKHARSGECFYDEKRNLQCICDYCEY) | – | significantly higher sweetness potency than either sucrose or wild type Brazzein |
